{"source": "patent US20030087789A1", "about": "“Emulsion containing a plant extract, method for producing said emulsion and for obtaining a plant extract” (priority 2000, published 2003)", "origin": "cited, not measured here", "key": {"Escherichia coli": {"tested_on": "Escherichia coli", "details": "intestinal Escherichia coli"}}}
{"smiles": "C=C(C)[C@@H]1CC[C@]2(CO)CC[C@]3(C)[C@H](CC[C@@H]4[C@@]5(C)CC[C@H](O)C(C)(C)[C@@H]5CC[C@]43C)[C@@H]12", "note": "[betulin]", "values": [{"measurement": "bacteriostatic and bactericidal effect", "setting": "Salmonella typhi", "result": "bacteriostatic and bactericidal effect"}, {"measurement": "bacteriostatic and bactericidal effect", "setting": "Shigella flexneri", "result": "bacteriostatic and bactericidal effect"}, {"measurement": "bacteriostatic and bactericidal effect", "setting": "Staphylococcus aureus", "result": "bacteriostatic and bactericidal effect"}, {"measurement": "bacteriostatic and bactericidal effect", "setting": "Escherichia coli", "result": "bacteriostatic and bactericidal effect"}, {"measurement": "solubility in cold petroleum ether", "setting": "cold petroleum ether (C5-C8 CH)", "result": "practically insoluble"}, {"measurement": "solubility in dichloromethane, chloroform and cold organic solvents", "setting": "dichloromethane, chloroform and cold organic solvents", "result": "only slightly soluble"}, {"measurement": "solubility in pyridine and tetrahydrofuran", "setting": "pyridine and tetrahydrofuran", "result": "soluble"}, {"measurement": "solubility in water", "setting": "water", "result": "practically insoluble"}, {"measurement": "solubility in water or water-alcohol mixtures", "setting": "water or water-alcohol mixtures (up to 60% alcohol)", "result": "insoluble"}]}
